Laboratory results published in patent US20250320224A1 (DOMAIN THERAPEUTICS, priority 2022, published 2025).
pIC50: −log10 of the molar value. Structures can show the parent of a compound that is named as a salt.

Biological target: T1, human PAR-2 (hPAR-2) receptor (Homo sapiens, UniProt P55085)
T1 construct: expressed in HEK-293 cells in an endogenous manner; endogenous in cells; host or cells: HEK-293
T1 sequence (P55085 26-397): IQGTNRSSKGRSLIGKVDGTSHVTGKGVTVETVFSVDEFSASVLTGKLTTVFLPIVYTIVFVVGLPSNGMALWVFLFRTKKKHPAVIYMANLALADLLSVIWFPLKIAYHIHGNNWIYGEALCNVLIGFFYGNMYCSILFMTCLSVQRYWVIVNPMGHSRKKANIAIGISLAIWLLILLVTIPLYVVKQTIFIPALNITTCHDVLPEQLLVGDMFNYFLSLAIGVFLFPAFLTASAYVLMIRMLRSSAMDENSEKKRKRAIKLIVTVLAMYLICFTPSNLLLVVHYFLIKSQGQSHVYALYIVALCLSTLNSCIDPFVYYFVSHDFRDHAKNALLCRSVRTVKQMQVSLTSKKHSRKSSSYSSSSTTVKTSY
Experiment: In vitro human PAR-2 functional antagonist activity using calcium assays
Assay type: cell-based
Details: hPAR-2 endogenously expressed in HEK-293 cells; stimulated by 2-Furoyl-LIGRLO-NH2 peptide; Fluo4AM intracellular calcium, FLIPR Tetra
Procedure: Example 283: In Vitro Human PAR-2 Functional Antagonist Activity Using Calcium Assays
Examples of the present invention were tested successively for their agonist and antagonist activities on human PAR-2 (hPAR-2) receptor expressed in HEK-293 cells in an endogenous manner. Compounds exert agonist activity if, by themselves in absence of the 2-Furoyl-LIGRLO-NH2 peptide (selective hPAR-2 agonist), they activate PAR-2; they exert antagonist activity if they decrease the action of the 2-Furoyl-LIGRLO-NH2 peptide on the receptor. The assay used to determine compound activity is based on calcium measurement.
Cell Culture: HEK-293 cells were maintained in Dulbecco's Modified Eagle's Medium supplemented with 10% Foetal Calf Serum, 1% Penicillin/Streptomycin at 37° C./5% CO2. Flasks for tests (F75) are seeded with 6e+06 cells 24 h before the experiment at 37° C./5% CO2.
Calcium assay: Receptor activity was detected by changes in intracellular calcium measured using the fluorescent Ca^2+ sensitive dye, Fluo4AM (Molecular Probes).
The day of the assay, medium was replaced by assay buffer (HBSS 1× (Gibco 14175-053), Hepes 20 mM, MgSO4-7H2O 1 mM, Na2CO3 3.3 mM, CaCl2—2H2O 2.6 mM, 0.5% bovine serum albumin (BSA), Probenecid 2.5 mM, 0.1 mg/mL Pluronic Acid) and complemented with 1 μM Fluo4AM and cells were incubated during 1:30 h at 37° C.
Cells were then detached, resuspended in assay buffer and seeded in 384 wells, transparent-flat bottom black walled plates (2e+04 cells per well). Plates were incubated at +22° C. for 20 min. Compounds stock solutions were prepared in 100% DMSO and dilutions in test buffer were carried out in polypropylene plates with a digital dispenser (D300e, Tecan). Compounds were added to the cells and intracellular Ca^2+ measurements were collected at the same time on FLIPR Tetra® (Molecular Devices) with specific filters (Exc: 470-495 nm/Em: 515-575 nm).
Agonist and antagonist activities of compounds were consecutively evaluated on the same cell plate. Agonist activity was first measured after 10 min incubation with the compound alone. Then, cells were stimulated by an […] of the 2-Furoyl-LIGRLO-NH2 peptide and fluorescence was recorded for an additional 5 min. EC50 of the 2-Furoyl-LIGRLO-NH2 peptide was the concentration giving 80% of the maximal 2-Furoyl-LIGRLO-NH2 response. Agonist activities are evaluated in comparison to basal signals evoked by assay buffer or maximal 2-Furoyl-LIGRLO-NH2 response. […] Antagonist activities are evaluated in comparison to basal signals evoked by assay buffer or EC50 of 2-Furoyl-LIGRLO-NH2 alone.

pIC50	SMILES
> 6.30	CC1(C)CN(c2ccc(Cl)c(F)c2)c2ccc(C(=O)N3CCN(c4nncs4)CC3(C)C)nc21 [Example 67, (1-(4-chloro-3-fluorophenyl)-3,3-dimethyl-2,3-dihydro-1H-pyrrolo[3,2-b]pyridin-5-yl)(2,2-dimethyl-4-(1,3,4-thiadiazol-2-yl)piperazin-1-yl)methanone]
> 6.30	Cc1nc(N2CCN(C(=O)c3ccc4c(n3)C(C)(C)CN4c3ccc(Cl)c(F)c3)C(C)(C)C2)sc1C(=O)O [Example 69, 2-(4-(1-(4-chloro-3-fluorophenyl)-3,3-dimethyl-2,3-dihydro-1H-pyrrolo[3,2-b]pyridine-5-carbonyl)-3,3-dimethylpiperazin-1-yl)-4-methylthiazole-5-carboxylic acid]
> 6.30	Cc1nc(N2CCN(C(=O)c3ccc4c(n3)C(C)(C)CN4c3ccc(Cl)c(F)c3)C(C)(C)C2)sc1CC(=O)O [Example 71, 2-(2-(4-(1-(4-chloro-3-fluorophenyl)-3,3-dimethyl-2,3-dihydro-1H-pyrrolo[3,2-b]pyridine-5-carbonyl)-3,3-dimethylpiperazin-1-yl)-4-methylthiazol-5-yl)acetic acid]
> 6.30	Cc1sc(N2CCN(C(=O)c3ccc4c(n3)C(C)(C)CN4c3ccc(Cl)c(F)c3)C(C)(C)C2)nc1C(=O)O [Example 73, 2-(4-(1-(4-chloro-3-fluorophenyl)-3,3-dimethyl-2,3-dihydro-1H-pyrrolo[3,2-b]pyridine-5-carbonyl)-3,3-dimethylpiperazin-1-yl)-5-methylthiazole-4-carboxylic acid hydrochloride]
> 6.30	CC1(C)CN(c2ccc(Cl)c(F)c2)c2ccc(C(=O)N3CCNC(=O)CC3(C)C)nc21 [Example 74, 1-(1-(4-chloro-3-fluorophenyl)-3,3-dimethyl-2,3-dihydro-1H-pyrrolo[3,2-b]pyridine-5-carbonyl)-7,7-dimethyl-1,4-diazepan-5-one]
5.00 to 6.30	CC1(C)CN(c2ccc(Cl)c(F)c2)c2ccc(C(=O)N3CCC4(CCNC4=O)CC3)nc21 [Example 75, 8-(1-(4-chloro-3-fluorophenyl)-3,3-dimethyl-2,3-dihydro-1H-pyrrolo[3,2-b]pyridine-5-carbonyl)-2,8-diazaspiro[4.5]decan-1-one]
5.00 to 6.30	CC1(C)CN(c2ccc(Cl)c(F)c2)c2ccc(C(=O)N3CCC4(CC3)CNC(=O)C4)nc21 [Example 76, 8-(1-(4-chloro-3-fluorophenyl)-3,3-dimethyl-2,3-dihydro-1H-pyrrolo[3,2-b]pyridine-5-carbonyl)-2,8-diazaspiro[4.5]decan-3-one]
5.00 to 6.30	CC1(C)CN(c2ccc(Cl)c(F)c2)c2ccc(C(=O)N3CCC(N4CCNC4=O)CC3)nc21 [Example 77, 1-(1-(1-(4-chloro-3-fluorophenyl)-3,3-dimethyl-2,3-dihydro-1H-pyrrolo[3,2-b]pyridine-5-carbonyl)piperidin-4-yl)imidazolidin-2-one]
> 6.30	CC1(C)CN(c2ccc(Cl)c(F)c2)c2ccc(C(=O)N3CCN(c4nc(C(F)(F)F)c(C(=O)O)s4)CC3(C)C)nc21 [Example 79, 2-(4-(1-(4-chloro-3-fluorophenyl)-3,3-dimethyl-2,3-dihydro-1H-pyrrolo[3,2-b]pyridine-5-carbonyl)-3,3-dimethylpiperazin-1-yl)-4-(trifluoromethyl)thiazole-5-carboxylic acid]
> 6.30	CN(C)C(=O)c1csc(N2CCN(C(=O)c3ccc4c(n3)C(C)(C)CN4c3ccc(Cl)c(F)c3)C(C)(C)C2)n1 [Example 80, 2-(4-(1-(4-chloro-3-fluorophenyl)-3,3-dimethyl-2,3-dihydro-1H-pyrrolo[3,2-b]pyridine-5-carbonyl)-3,3-dimethylpiperazin-1-yl)-N,N-dimethylthiazole-4-carboxamide]

Second part, the compound before the results:

SMILES	pIC50
Cc1cc(N(C)CCN(C)C(=O)c2ccc3c(n2)C(C)(C)CN3c2ccc(Cl)c(F)c2)nc(C)c1C(=O)O [Example 50, 6-((2-(1-(4-chloro-3-fluorophenyl)-N,3,3-trimethyl-2,3-dihydro-1H-pyrrolo[3,2-b]pyridine-5-carboxamido)ethyl)(methyl)amino)-2,4-dimethylnicotinic acid]	5.00 to 6.30
CC(C)(CO)NC(=O)c1ccc2c(n1)C(C)(C)CN2c1ccc(Cl)c(F)c1 [Example 51, 1-(4-chloro-3-fluorophenyl)-N-(1-hydroxy-2-methylpropan-2-yl)-3,3-dimethyl-2,3-dihydro-1H-pyrrolo[3,2-b]pyridine-5-carboxamide]	5.00 to 6.30
CC(C)(O)CNC(=O)c1ccc2c(n1)C(C)(C)CN2c1ccc(Cl)c(F)c1 [Example 52, 1-(4-chloro-3-fluorophenyl)-N-(2-hydroxy-2-methylpropyl)-3,3-dimethyl-2,3-dihydro-1H-pyrrolo[3,2-b]pyridine-5-carboxamide]	< 5.00
CCC1(C)CN(c2ccc(Cl)c(F)c2)c2ccc(C(=O)N3CCNC(=O)C3(C)C)nc21 (stereo not drawn) [Example 53, 4-(1-(4-chloro-3-fluorophenyl)-3-ethyl-3-methyl-2,3-dihydro-1H-pyrrolo[3,2-b]pyridine-5-carbonyl)-3,3-dimethylpiperazin-2-one]	> 6.30
CCC1(C)CN(c2ccc(Cl)c(F)c2)c2ccc(C(=O)NC3(C(N)=O)CC3)nc21 (stereo not drawn) [Example 54, N-(1-carbamoylcyclopropyl)-1-(4-chloro-3-fluorophenyl)-3-ethyl-3-methyl-2,3-dihydro-1H-pyrrolo[3,2-b]pyridine-5-carboxamide]	5.00 to 6.30
CC1(C)C(=O)NCCN1C(=O)c1ccc2c(n1)C1(CCOCC1)CN2c1ccc(Cl)c(F)c1 [Example 55, 4-(1′-(4-chloro-3-fluorophenyl)-1′,2,2′,3,5,6-hexahydrospiro[pyran-4,3′-pyrrolo[3,2-b]pyridine]-5′-carbonyl)-3,3-dimethylpiperazin-2-one]	> 6.30
Cc1cc(N2CCN(C(=O)c3ccc4c(n3)C3(CCOCC3)CN4c3ccc(Cl)c(F)c3)C(C)(C)C2)nc(C)c1C(=O)O [Example 56, 6-(4-(1′-(4-chloro-3-fluorophenyl)-1′,2,2′,3,5,6-hexahydrospiro[pyran-4,3′-pyrrolo[3,2-b]pyridine]-5′-carbonyl)-3,3-dimethylpiperazin-1-yl)-2,4-dimethylnicotinic acid]	> 6.30
CC1(C)C(=O)NCCN1C(=O)c1ccc2c(n1)C1(CC1)CN2c1ccc(Cl)c(F)c1 [Example 57, 4-(1′-(4-chloro-3-fluorophenyl)-1′,2′-dihydrospiro[cyclopropane-1,3′-pyrrolo[3,2-b]pyridine]-5′-carbonyl)-3,3-dimethylpiperazin-2-one]	> 6.30
CC1(C)C(=O)NCCN1C(=O)c1ccc2c(n1)C1(CCOC1)CN2c1ccc(Cl)c(F)c1 (stereo not drawn) [Example 58, 4-(1′-(4-chloro-3-fluorophenyl)-1′,2′,4,5-tetrahydro-2H-spiro[furan-3,3′-pyrrolo[3,2-b]pyridine]-5′-carbonyl)-3,3-dimethylpiperazin-2-one]	> 6.30
Cc1cc(N2CCN(C(=O)c3ccc4c(n3)C3(CCOC3)CN4c3ccc(Cl)c(F)c3)C(C)(C)C2)nc(C)c1C(=O)O (stereo not drawn) [Example 60, 6-(4-(1′-(4-chloro-3-fluorophenyl)-1′,2′,4,5-tetrahydro-2H-spiro[furan-3,3′-pyrrolo[3,2-b]pyridine]-5′-carbonyl)-3,3-dimethylpiperazin-1-yl)-2,4-dimethylnicotinic acid hydrochloride]	> 6.30
CC1(C)CN(c2ccc(Cl)c(F)c2)c2ccc(C(=O)N3CCN(c4ccc(CC(=O)O)cn4)CC3(C)C)nc21 [Example 65, 2-(6-(4-(1-(4-chloro-3-fluorophenyl)-3,3-dimethyl-2,3-dihydro-1H-pyrrolo[3,2-b]pyridine-5-carbonyl)-3,3-dimethylpiperazin-1-yl)pyridin-3-yl)acetic acid]	> 6.30
